Assay results as given in patent US12077503B2, “Substituted cyclic amides and their use as herbicides” (FMC CORPORATION, priority 2015, dated 2024).

Key:
Assay type in all cases: in vivo
[1] = tested on: barnyardgrass (Echinochloa crus-galli); assay: Test G Pre-Emergence Protocol; conditions: Echinochloa crus-galli, pre-emergence, 312 h, evaluated after 13 days
How it was run: (§1)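 Scores are visual damage ratings from 0 (no damage) to 100 (total plant kill), taken 13 days after treatment. Compound was sprayed one day post-sowing at 15.625, 62.5 or 250 g/ha in 50:50 acetone/water with 0.5% Tween 20.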

[2] = tested on: ivy-leaved morning glory (Ipomoea hederacea); assay: Test G Pre-Emergence Protocol; conditions: Ipomoea, pre-emergence, 312 h, evaluated after 13 days
How it was run: as §1

[3] = tested on: velvetleaf (Abutilon theophrasti); assay: Test G Pre-Emergence Protocol; conditions: Abutilon theophrasti, pre-emergence, 312 h, evaluated after 13 days
How it was run: as §1

[4] = tested on: giant foxtail (Setaria faberi); assay: Test G Pre-Emergence Protocol; conditions: Setaria faberi, pre-emergence, 312 h, evaluated after 13 days
How it was run: as §1

[5] = tested on: redroot pigweed (Amaranthus retroflexus); assay: Test G Pre-Emergence Protocol; conditions: Amaranthus retroflexus, pre-emergence, 312 h, evaluated after 13 days
How it was run: as §1

corn (Zea mays) [6] = assay: Test G Pre-Emergence Protocol; conditions: Zea mays, pre-emergence, 312 h, evaluated after 13 days
How it was run: as §1

[7] = tested on: barnyardgrass (Echinochloa crus-galli); assay: Test G Post-Emergence Protocol; conditions: Echinochloa crus-galli, post-emergence, 312 h, read-out: Barnyardgrass damage rating
How it was run: (§2)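 Sow in soil; grow 8 d (24/16 °C, 14 h light, 65% humidity); spray 15.625/62.5/250 g/ha in acetone:water 50:50 + 0.5% Tween 20; grow on, water twice daily; score damage 0–100 at 13 d.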

[8] = tested on: ivy-leaved morning glory (Ipomoea hederacea); assay: Test G Post-Emergence Protocol; conditions: Ipomoea, post-emergence, 312 h, read-out: Morningglory, Ivy-leaved damage rating
How it was run: as §2

[9] = tested on: velvetleaf (Abutilon theophrasti); assay: Test G Post-Emergence Protocol; conditions: Abutilon theophrasti, post-emergence, 312 h, read-out: Velvetleaf damage rating
How it was run: as §2

[10] = tested on: giant foxtail (Setaria faberi); assay: Test G Post-Emergence Protocol; conditions: Setaria faberi, post-emergence, 312 h, read-out: Foxtail, Giant damage rating
How it was run: as §2

[11] = tested on: redroot pigweed (Amaranthus retroflexus); assay: Test G Post-Emergence Protocol; conditions: Amaranthus retroflexus, post-emergence, 312 h, read-out: Pigweed, Redroot damage rating
How it was run: as §2

corn (Zea mays) [12] = assay: Test G Post-Emergence Protocol; conditions: Zea mays, post-emergence, 312 h, read-out: Corn damage rating
How it was run: as §2

[13] = 15.625 g ai/ha, evaluated after 13 days (100=total damage to plant; 0=no damage to plant)
[14] = 62.5 g ai/ha, evaluated after 13 days, 100=total damage to plant, 0=no damage to plant
[15] = 250 g ai/ha, evaluated after 13 days, 100=total damage to plant, 0=no damage to plant

COc1ncc([C@@H]2CN(C)C(=O)[C@H]2C(=O)Nc2cccc(F)c2F)cc1Cl (racemic) [Compound 1755]
30%: pest or weed control at 62.5 g/ha [9, 14] | pest or weed control at 250 g/ha [11, 15]
90%: pest or weed control at 250 g/ha ([1]; 250 g ai/ha, read-out: Barnyardgrass damage rating (100=total damage to plant; 0=no damage to plant)) | pest or weed control at 62.5 g/ha ([4]; 62.5 g ai/ha, 100=total damage to plant, 0=no damage to plant, read-out: Foxtail, Giant damage rating) | pest or weed control at 250 g/ha ([4]; 250 g ai/ha, read-out: Foxtail, Giant damage rating (100=total damage to plant; 0=no damage to plant))
40%: pest or weed control at 62.5 g/ha ([5]; 62.5 g ai/ha, 100=total damage to plant, 0=no damage to plant, read-out: Pigweed, Redroot damage rating)
10%: pest or weed control at 15.625 g/ha [9, 13] | pest or weed control at 15.625 g/ha [11, 13] | plant injury at 15.625 g/ha (corn (Zea mays) [12]; [13])
70%: pest or weed control at 15.625 g/ha ([1]; 15.625 g ai/ha, read-out: Barnyardgrass damage rating (100=total damage to plant; 0=no damage to plant)) | pest or weed control at 250 g/ha ([3]; 250 g ai/ha, read-out: Velvetleaf damage rating (100=total damage to plant; 0=no damage to plant)) | pest or weed control at 250 g/ha ([5]; 250 g ai/ha, read-out: Pigweed, Redroot damage rating (100=total damage to plant; 0=no damage to plant)) | pest or weed control at 62.5 g/ha [7, 14] | pest or weed control at 62.5 g/ha [8, 14] | pest or weed control at 250 g/ha [8, 15] | pest or weed control at 15.625 g/ha [10, 13]
60%: plant injury at 62.5 g/ha (corn (Zea mays) [6]; 62.5 g ai/ha, 100=total damage to plant, 0=no damage to plant, read-out: Corn damage rating) | pest or weed control at 15.625 g/ha [7, 13] | pest or weed control at 15.625 g/ha [8, 13] | pest or weed control at 250 g/ha [9, 15]
20%: pest or weed control at 62.5 g/ha ([2]; 62.5 g ai/ha, 100=total damage to plant, 0=no damage to plant, read-out: Morningglory, Ivy-leaved damage rating) | pest or weed control at 62.5 g/ha ([3]; 62.5 g ai/ha, 100=total damage to plant, 0=no damage to plant, read-out: Velvetleaf damage rating) | plant injury at 15.625 g/ha (corn (Zea mays) [6]; 15.625 g ai/ha, read-out: Corn damage rating (100=total damage to plant; 0=no damage to plant)) | pest or weed control at 62.5 g/ha [11, 14]
0%: pest or weed control at 15.625 g/ha ([2]; 15.625 g ai/ha, read-out: Morningglory, Ivy-leaved damage rating (100=total damage to plant; 0=no damage to plant)) | pest or weed control at 15.625 g/ha ([3]; 15.625 g ai/ha, read-out: Velvetleaf damage rating (100=total damage to plant; 0=no damage to plant)) | pest or weed control at 15.625 g/ha ([5]; 15.625 g ai/ha, read-out: Pigweed, Redroot damage rating (100=total damage to plant; 0=no damage to plant))
80%: pest or weed control at 62.5 g/ha ([1]; 62.5 g ai/ha, 100=total damage to plant, 0=no damage to plant, read-out: Barnyardgrass damage rating) | pest or weed control at 250 g/ha ([2]; 250 g ai/ha, read-out: Morningglory, Ivy-leaved damage rating (100=total damage to plant; 0=no damage to plant)) | pest or weed control at 15.625 g/ha ([4]; 15.625 g ai/ha, read-out: Foxtail, Giant damage rating (100=total damage to plant; 0=no damage to plant)) | plant injury at 250 g/ha (corn (Zea mays) [6]; 250 g ai/ha, read-out: Corn damage rating (100=total damage to plant; 0=no damage to plant)) | pest or weed control at 250 g/ha [7, 15] | pest or weed control at 62.5 g/ha [10, 14] | plant injury at 62.5 g/ha (corn (Zea mays) [12]; [14]) | plant injury at 250 g/ha (corn (Zea mays) [12]; [15])
